According to patent publication US5614527A, “Insecticidal tetrahydrofuran-compound” (Mitsui Toatsu Chemicals, Inc., priority 1994, dated 1997):
Where two headings read alike, the source gives them in different places.

Columns and labels:
[1] = test system: Laodelphax striatellus Fallen--Smaller brown planthopper; assay: Effect on smaller brown planthopper (mortality, treated rice seedlings); format: in vivo; conditions: female adults, 25° C., 48 hours
Method: (§1) Effect on Laodelphax striatellus Fallen--Smaller brown planthopper Each compound of the present invention was dissolved in acetone to prepare an acetone solution having a predetermined concentration, and 3 ml of the acetone solution was applied over a bundle of several rice seedlings (about third leaf stage). After drying in air, the treated seedlings were covered with a metal gauze cylinder, and ten female adults of smaller brown planthopper were introduced into the cylinder. Afterward, this cylinder was placed in a temperature controlled room at 25° C. and after 48 hours, mortality was checked.

[2] = test system: Myzus persicae Sulzer--Green peach aphid; assay: Effect on green peach aphid (mortality, sprayed eggplant seedlings); format: in vivo; conditions: for Mortality (%): 48 hours; for mortality at 10 ppm / mortality at 100 ppm: Myzus persicae, 48 h
Method: (§2) 20 parts of a compound of the present invention, 10 parts of Sorpol 355S (made by Toho Chemical Co., Ltd., a surface active agent), 70 parts of xylene were uniformly stirred and mixed to obtain an emulsion. Here, the parts mean parts by weight, which will apply to the following.
Effect on Myzus persicae Sulzer--Green peach aphid
The emulsion of each compound of the present invention prepared according to Formulation Example 1 was diluted with distilled water to a predetermined concentration, and a spreading agent (New Gramn, made by Sankyo Co., Ltd.) was then added thereto so that its concentration might be 0.02%. Then, the thus prepared chemical solution was sprayed over eggplant seedlings of 2nd and 3rd plastochrons, on which green peach aphids had been parasitic, and the seedlings were the cultivated in a hothouse. After 48 hours, the number of the alive green peach aphid was counted to calculate mortality.

[3] = test system: Spodoptera litura Fabricius--Common cutworm; assay: Effect on common cutworm (mortality, leaf immersion); format: in vivo; conditions: second instar larvae, 25° C.; for Mortality (%): 1000 ppm, 72 hours, 4320 min; for mortality at 1000 ppm: Spodoptera litura, 72 h
Method: as §2
Effect on Spodoptera litura Fabricius--Common cutworm
The emulsion of each compound of the present invention prepared according to Formulation Example 1 was diluted with distilled water to a predetermined concentration, and a spreading agent New Gramin, made by Sankyo Co., Ltd.) was then added thereto so that its concentration might be 0.02%. Then, 3leaves of Ipomea batatas were fully immersed in the solution. After drying in air, the leaves were placed in a plastic cup having a diameter of 9 cm and a depth of 4 cm, and 10 second instar larvae of common cutworm were allowed to eat the leaves at 25° C. After 72 hours, mortality was checked.

[4] = test system: resistant strain of Nepphotettix cincticeptus Unler--Resistant green rice leafhopper; assay: Effect on resistant green rice leafhopper (mortality, treated rice seedlings); format: in vivo; conditions: for mortality at 200 ppm / mortality at 1000 ppm: Nephotettix cincticeps
Method: Effect on resistant strain of Nepphotettix cincticeptus Unler--Resistant green rice leafhopper
as §1, with “Each” for “Effect on Laodelphax striatellus Fallen--Smaller brown planthopper Each”, “resistant green rice leafhopper” for “smaller brown planthopper”, “C.,” for “C.”

[5] = Acute toxicity to mice (oral); conditions: mouse, in vivo; oral (stomach tube); male mice 6 weeks old; 14 days observation
Method: 5-week-old male mice (Crj: CD-1) were purchased and then tamed for 1 week, and so the mice of 6 weeks old were tested. The mice were bred in a breeding chamber having a temperature of 23°±2° C., a humidity of 50±10%, a ventilation frequency of 15 times/hour and a lighting time of 12 hours/day. A solid feed (CE-2, made by Nippon Clea) was given, and as drinking water, tap water was freely given.
Each compound to be tested was Suspended in acetone:corn oil (1:9) by the use of a high-speed homogenizer, and then orally administered forcedly to the mice to be tested through a stomach tube. The amount of the solution to be administered was 0.1 ml with respect to 10 g of weight (10 ml/kg).
One administration group was constituted of 5 mice, and an observation period was 14 days from the administration.

[6] = 200 ppm, female adults, 25° C., 48 hours, read-out: Mortality (%)
[7] = 1000 ppm, female adults, 25° C., 48 hours, read-out: Mortality (%)

With `CCC(=O)N1CCCN(CC2CCOC2)C1=N[N+](=O)[O-]` (centres unmarked) [Compound No. 13, 1-propionyl-2-(nitroimino)-3-[(tetrahydro-3-furanyl)methyl]hexahydropyrimidine] the “Mortality (%)” value ([1]; 200 ppm) was 100%, the “Mortality (%)” value ([1]; 1000 ppm) was 100% and the “Mortality (%)” value ([2]; 10 ppm, 2880 min) was 27%. For the same compound, the “Mortality (%)” value ([2]; 100 ppm) was 100%, the “Mortality (%)” value [3] was 100% and the “Mortality (%)” value ([4]; 200 ppm, female adults, 25° C., 48 hours) was 100%. For the same compound, the “Mortality (%)” value ([4]; 1000 ppm, female adults, 25° C., 48 hours) was 100%.

For `O=[N+]([O-])N=C1NCCN1CC1CCOC1` (centres unmarked) [Compound No. 4, 1-[(tetrahydro-3-furanyl)methyl]-2-(nitroimino)imidazolidine], the “Mortality (%)” value ([1]; 200 ppm) was 100%, the “Mortality (%)” value ([1]; 1000 ppm) was 100% and the mortality at 10 ppm ([2]; 10 ppm) was 67%. It also gave a mortality at 100 ppm ([2]; 100 ppm) of 100%, a mortality at 1000 ppm [3] of 100% and a mortality at 200 ppm [4, 6] of 100%. It also gave a mortality at 1000 ppm [4, 7] of 100%.

In the case of `CC1CC(CN2CCCNC2=N[N+](=O)[O-])CO1` (centres unmarked) [Compound No. 2, 1-[(2-methyl-4-tetrahydrofuryl)methyl]-2-(nitroimino)hexahydropyrimidine], the “Mortality (%)” value ([1]; 200 ppm) is reported as 100%, the “Mortality (%)” value ([1]; 1000 ppm) is reported as 100% and the mortality at 10 ppm ([2]; 10 ppm) is reported as 100%. The mortality at 100 ppm ([2]; 100 ppm) was 100%, the LD50 at 336 h [5] was greater than 500 mg/kg and the mortality at 200 ppm ([4]; 48 h) was 100%. The mortality at 1000 ppm ([4]; 48 h) was 100%.

Compound `O=[N+]([O-])/N=C1\NCCCN1Cc1ccc(Cl)nc1` [Comparative Compound (4), reference compound] has an LD50 at 336 h [5] of 30 to 100 mg/kg.

With `CC1(C)CC(CN2CCCNC2=N[N+](=O)[O-])CO1` (centres unmarked) [Compound No. 3, 1-[(2,2-dimethyl-4-tetrahydrofuryl)methyl]-2-(nitroimino)hexahydropyrimidine] the “Mortality (%)” value ([1]; 200 ppm) was 100%, the “Mortality (%)” value ([1]; 1000 ppm) was 100% and the mortality at 10 ppm ([2]; 10 ppm) was 100%. For the same compound, the mortality at 100 ppm ([2]; 100 ppm) was 100%, the mortality at 200 ppm [4, 6] was 100% and the mortality at 1000 ppm [4, 7] was 100%.

For `O=[N+]([O-])N=C1NCCN1Cc1ccoc1` [Comparative Compound (2), reference compound], the “Mortality (%)” value ([1]; 200 ppm) was 0%, the “Mortality (%)” value ([1]; 1000 ppm) was 40% and the mortality at 1000 ppm [3] was 0%.

Work on `O=[N+]([O-])C=C1NCCCN1CC1CCOC1` (centres unmarked) [Comparative Compound (3), reference compound] yielded a mortality at 1000 ppm [3] of 0%.

With `CC(C)C(=O)N1CCCN(CC2CCOC2)C1=N[N+](=O)[O-]` (centres unmarked) [Compound No. 9, 1-(isopropylcarbonyl)-2-(nitroimino)-3-[(tetrahydro-3-furanyl)methyl]hexahydropyrimidine] the “Mortality (%)” value ([1]; 200 ppm) was 100%, the “Mortality (%)” value ([1]; 1000 ppm) was 100% and the mortality at 10 ppm ([2]; 10 ppm) was 86%. The mortality at 100 ppm ([2]; 100 ppm) was 100%, the mortality at 200 ppm [4, 6] was 100% and the mortality at 1000 ppm [4, 7] was 100%.

For `CC(=O)N1CCN(CC2CCOC2)C1=N[N+](=O)[O-]` (centres unmarked) [Compound No. 7, 1-(methylcarbonyl)-2-(nitroimino)-3-[(tetrahydro-3-furanyl)methyl]imidazolidine], the “Mortality (%)” value ([1]; 200 ppm) was 100%, the “Mortality (%)” value ([1]; 1000 ppm) was 100% and the mortality at 10 ppm ([2]; 10 ppm) was 63%. For the same compound, the mortality at 100 ppm ([2]; 100 ppm) was 100%, the mortality at 1000 ppm [3] was 100% and the mortality at 200 ppm [4, 6] was 100%. It also gave a mortality at 1000 ppm [4, 7] of 100%.

With `CC1CC(CN2CCNC2=N[N+](=O)[O-])CO1` (centres unmarked) [Compound No. 5, 1-[(2-methyl-4-tetrahydrofuryl)methyl]-2-(nitroimino)imidazolidine] the “Mortality (%)” value ([1]; 200 ppm) was 100%, the “Mortality (%)” value ([1]; 1000 ppm) was 100% and the mortality at 10 ppm ([2]; 10 ppm) was 100%. For the same compound, the mortality at 100 ppm ([2]; 100 ppm) was 100%, the mortality at 200 ppm [4, 6] was 100% and the mortality at 1000 ppm [4, 7] was 100%.

In the case of `CCC(=O)N1CCCN(CC2CCOC2)C1=N[N+](=O)[O-]` (centres unmarked) [Compound No. 11, 1-(ethylcarbonyl)-2-(nitroimino)-3-[(tetrahydro-3-furanyl)methyl]hexahydropyrimidine], the “Mortality (%)” value ([1]; 200 ppm) is reported as 100%, the “Mortality (%)” value ([1]; 1000 ppm) is reported as 100% and the mortality at 100 ppm ([2]; 100 ppm) is reported as 100%. For the same compound, the “Mortality (%)” value [3] was 70%, the mortality at 200 ppm [4, 6] was 100% and the mortality at 1000 ppm [4, 7] was 100%.

With `CCCC(=O)N1CCN(CC2CCOC2)C1=N[N+](=O)[O-]` (centres unmarked) [Compound No. 12, 1-(propylcarbonyl)-2-(nitroimino)-3-[(tetrahydro-3-furanyl)methyl]imidazolidine] the “Mortality (%)” value ([1]; 200 ppm) was 100%, the “Mortality (%)” value ([1]; 1000 ppm) was 100% and the mortality at 10 ppm ([2]; 10 ppm) was 0%. For the same compound, the mortality at 100 ppm ([2]; 100 ppm) was 66%, the mortality at 1000 ppm [3] was 100% and the mortality at 200 ppm [4, 6] was 100%. For the same compound, the mortality at 1000 ppm [4, 7] was 100%.

With `CC(=O)N1CCCN(CC2COC(C)C2)C1=N[N+](=O)[O-]` (centres unmarked) [Compound No. 10, 1-(methylcarbonyl)-3-[(2-methyl-4-tetrahydrofuryl)methyl]-2-(nitroimino) hexahydropyrimidine] the “Mortality (%)” value ([1]; 200 ppm) was 100%, the “Mortality (%)” value ([1]; 1000 ppm) was 100% and the mortality at 10 ppm ([2]; 10 ppm) was 100%. For the same compound, the mortality at 100 ppm ([2]; 100 ppm) was 100%, the mortality at 1000 ppm [3] was 100% and the mortality at 200 ppm [4, 6] was 100%. The mortality at 1000 ppm [4, 7] was 100%.

In the case of `CC(=O)N1CCCN(CC2CCOC2)C1=N[N+](=O)[O-]` (centres unmarked) [Compound No. 8, 1-(methylcarbonyl)-2-(nitroimino)-3-[(tetrahydro-3-furanyl)methyl]hexahydropyrimidine], the “Mortality (%)” value ([1]; 200 ppm) is reported as 100%, the “Mortality (%)” value ([1]; 1000 ppm) is reported as 100% and the mortality at 10 ppm ([2]; 10 ppm) is reported as 100%. For the same compound, the mortality at 100 ppm ([2]; 100 ppm) was 100%, the mortality at 200 ppm [4, 6] was 100% and the mortality at 1000 ppm [4, 7] was 100%.

In the case of `O=[N+]([O-])N=C1NCCN1CC1CCCO1` (centres unmarked) [Comparative Compound (1), 1-[(tetrahydro-2-furanyl)methyl]-2-(nitroimino)imidazolidine, reference compound], the “Mortality (%)” value ([1]; 200 ppm) is reported as 0%, the “Mortality (%)” value ([1]; 1000 ppm) is reported as 20% and the mortality at 10 ppm ([2]; 10 ppm) is reported as 0%. It also gave a mortality at 100 ppm ([2]; 100 ppm) of 0%, a mortality at 1000 ppm [3] of 0% and a mortality at 200 ppm [4, 6] of 0%. The mortality at 1000 ppm [4, 7] was 30%.

In the case of `CC1(C)CC(CN2CCNC2=N[N+](=O)[O-])CO1` (centres unmarked) [Compound No. 6, 1-[(2,2-dimethyl-4-tetrahydrofuryl)methyl]-2-(nitroimino)imidazolidine], the “Mortality (%)” value ([1]; 200 ppm) is reported as 100%, the “Mortality (%)” value ([1]; 1000 ppm) is reported as 100% and the mortality at 10 ppm ([2]; 10 ppm) is reported as 82%. The mortality at 100 ppm ([2]; 100 ppm) was 100%, the mortality at 200 ppm [4, 6] was 100% and the mortality at 1000 ppm [4, 7] was 100%.

In the case of `O=[N+]([O-])N=C1NCCCN1CC1CCOC1` (centres unmarked) [Compound No. 1, 1-[(tetrahydro-3-furanyl)methyl]-2-(nitroimino)hexahydropyrimidine], the “Mortality (%)” value ([1]; 200 ppm) is reported as 100%, the “Mortality (%)” value ([1]; 1000 ppm) is reported as 100% and the mortality at 10 ppm ([2]; 10 ppm) is reported as 100%. It also gave a mortality at 100 ppm ([2]; 100 ppm) of 100%, a mortality at 1000 ppm [3] of 70% and an LD50 at 336 h [5] greater than 300 mg/kg. For the same compound, the mortality at 200 ppm ([4]; 48 h) was 100% and the mortality at 1000 ppm ([4]; 48 h) was 100%.
